Experimental data: ChEMBL document CHEMBL5726221, “4,6-substituted-pyrazolo[1,5-a]pyrazines as janus kinase inhibitors” (2019)

Tests used:
[1] = molecular target: Non-receptor tyrosine-protein kinase TYK2 (Homo sapiens, UniProt P29597); assay: Tyk2 Inhibition Assay: Compounds of Formula I were screened for their ability to inhibit Tyk2 using the general enzyme inhibition assay method, in which the assay mixture contained 1 mM ATP, 8 μM Omnia Y12 peptide (Catalog # IVGN KPZ3121C; Invitrogen Corporation, Carlsbad, Calif.) and 1 nM Tyk2 in a total volume of 25 μL. Human Tyk2 kinase domain, comprising amino acids 886 to 1187 with 10 additional histidine residues (histidine tag) on the carboxy terminus, was expressed and purified from bacculovirus in-house at Array BioPharma Inc. (Boulder, Colo.). The histidine tag was cleaved after purification using standard conditions.
[2] = molecular target: T1, Tyrosine-protein kinase JAK3 (Homo sapiens, UniProt P52333); assay: JAK3 Inhibition Assay: Compounds of Formula I were screened for their ability to inhibit JAK3 using the general enzyme inhibition assay method, in which the assay mixture contained 1 mM ATP, 10 μM Omnia® Y7 peptide (Catalog # IVGN KNZ3071C, Invitrogen Corporation, Carlsbad, Calif.) and 2 nM JAK3 in a total volume of 25 μL. JAK3 was purchased from Invitrogen Corporation, Carlsbad, Calif. (catalog # IVGN PV4080).
T1 sequence (P52333 whole entry): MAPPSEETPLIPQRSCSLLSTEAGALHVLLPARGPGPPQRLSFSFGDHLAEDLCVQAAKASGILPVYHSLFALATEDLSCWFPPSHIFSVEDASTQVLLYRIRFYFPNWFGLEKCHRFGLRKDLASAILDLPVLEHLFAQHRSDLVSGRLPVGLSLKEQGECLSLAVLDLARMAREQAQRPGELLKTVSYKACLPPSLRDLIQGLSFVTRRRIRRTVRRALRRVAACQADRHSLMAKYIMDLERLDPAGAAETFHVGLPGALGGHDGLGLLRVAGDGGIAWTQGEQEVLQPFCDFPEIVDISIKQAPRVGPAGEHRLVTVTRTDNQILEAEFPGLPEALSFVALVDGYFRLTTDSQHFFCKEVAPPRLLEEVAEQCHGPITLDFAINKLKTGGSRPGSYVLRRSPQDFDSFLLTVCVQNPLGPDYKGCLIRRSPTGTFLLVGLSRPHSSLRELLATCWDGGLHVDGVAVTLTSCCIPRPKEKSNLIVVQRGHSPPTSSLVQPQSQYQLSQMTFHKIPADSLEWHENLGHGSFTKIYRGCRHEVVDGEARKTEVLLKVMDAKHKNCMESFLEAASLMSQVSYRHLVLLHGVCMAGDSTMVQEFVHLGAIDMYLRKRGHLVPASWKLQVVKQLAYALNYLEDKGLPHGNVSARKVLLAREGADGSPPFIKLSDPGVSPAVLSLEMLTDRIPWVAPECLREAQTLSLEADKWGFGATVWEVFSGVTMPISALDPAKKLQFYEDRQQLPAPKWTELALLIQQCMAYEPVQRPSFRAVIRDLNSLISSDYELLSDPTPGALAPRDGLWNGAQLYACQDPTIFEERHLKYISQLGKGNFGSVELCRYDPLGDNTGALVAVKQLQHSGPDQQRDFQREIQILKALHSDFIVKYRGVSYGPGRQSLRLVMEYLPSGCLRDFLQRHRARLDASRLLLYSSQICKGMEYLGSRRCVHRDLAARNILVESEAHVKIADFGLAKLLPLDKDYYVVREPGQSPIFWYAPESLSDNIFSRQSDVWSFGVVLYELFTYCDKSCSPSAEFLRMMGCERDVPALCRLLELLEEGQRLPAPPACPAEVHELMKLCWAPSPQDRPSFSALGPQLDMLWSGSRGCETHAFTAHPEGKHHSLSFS

Non-receptor tyrosine-protein kinase TYK2, sequence (P29597 whole entry, the tested form may be a part): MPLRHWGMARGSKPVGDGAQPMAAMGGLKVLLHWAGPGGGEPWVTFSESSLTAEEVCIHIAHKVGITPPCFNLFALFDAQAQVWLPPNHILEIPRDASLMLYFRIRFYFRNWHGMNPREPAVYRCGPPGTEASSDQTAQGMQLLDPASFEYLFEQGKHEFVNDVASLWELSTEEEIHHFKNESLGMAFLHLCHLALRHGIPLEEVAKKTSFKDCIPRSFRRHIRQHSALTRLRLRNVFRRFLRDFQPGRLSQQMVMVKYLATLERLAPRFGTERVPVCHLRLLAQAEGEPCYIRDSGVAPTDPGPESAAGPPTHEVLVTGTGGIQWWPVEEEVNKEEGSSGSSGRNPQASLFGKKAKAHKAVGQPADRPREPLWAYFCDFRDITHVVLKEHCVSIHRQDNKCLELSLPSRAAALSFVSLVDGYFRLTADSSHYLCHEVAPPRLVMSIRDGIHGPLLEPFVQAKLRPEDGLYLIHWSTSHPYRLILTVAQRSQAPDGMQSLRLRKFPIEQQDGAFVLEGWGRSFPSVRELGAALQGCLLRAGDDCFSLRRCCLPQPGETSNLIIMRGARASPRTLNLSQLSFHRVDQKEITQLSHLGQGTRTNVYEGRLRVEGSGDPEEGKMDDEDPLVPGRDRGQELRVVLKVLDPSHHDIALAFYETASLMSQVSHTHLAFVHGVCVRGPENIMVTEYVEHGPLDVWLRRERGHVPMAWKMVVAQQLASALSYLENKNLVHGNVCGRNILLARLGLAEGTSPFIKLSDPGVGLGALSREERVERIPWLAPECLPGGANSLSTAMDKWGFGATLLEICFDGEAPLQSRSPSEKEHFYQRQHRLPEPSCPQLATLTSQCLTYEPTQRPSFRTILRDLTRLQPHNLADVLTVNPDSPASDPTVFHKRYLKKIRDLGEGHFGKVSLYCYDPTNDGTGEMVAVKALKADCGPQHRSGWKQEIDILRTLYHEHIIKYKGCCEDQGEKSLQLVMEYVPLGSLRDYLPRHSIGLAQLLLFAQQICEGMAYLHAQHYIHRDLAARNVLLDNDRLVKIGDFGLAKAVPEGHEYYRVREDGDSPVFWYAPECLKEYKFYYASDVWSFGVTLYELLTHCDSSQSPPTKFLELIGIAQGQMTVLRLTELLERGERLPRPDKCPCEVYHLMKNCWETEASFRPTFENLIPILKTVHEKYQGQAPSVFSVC

| IC50 [1] | IC50 [2] | SMILES |
| --- | --- | --- |
| in the range around 0.055 µM | in the range around 5.5 µM | CCC(CC)n1cc(-c2nc(-c3cnn([C@H]4C[C@@H](O)[C@@H](O)C4)c3)cn3nccc23)cn1 |
| – | in the range around 5.5 µM | CCC(CC)n1cc(-c2nc(-c3cnn(CC4CC(CO)C4)c3)cn3nccc23)cn1 (centres undefined) |
| – | in the range around 5.5 µM | CCC(CC)n1cc(-c2nc(-c3cnn([C@H]4C[C@@](O)(CO)C4)c3)cn3nccc23)cn1 |
